What was measured:
[1] = biological target: T1, thromboxane A2 receptor (Cavia porcellus, UniProt A0A286Y4I8); assay: Thromboxane A2 antagonistic effect: inhibition of U-46619-induced platelet aggregation in guinea-pig platelet-rich plasma; assay type: cell-based, guinea-pigs; details: guinea-pig PRP, U-46619 2 μg/ml, 2 min at 37° C.; read-out: IC50 (50% inhibition against platelet aggregation)
T1 construct: platelet-rich plasma; endogenous in cells; host or cells: guinea-pig platelets in platelet-rich plasma
T1 sequence (A0A286Y4I8 1-347): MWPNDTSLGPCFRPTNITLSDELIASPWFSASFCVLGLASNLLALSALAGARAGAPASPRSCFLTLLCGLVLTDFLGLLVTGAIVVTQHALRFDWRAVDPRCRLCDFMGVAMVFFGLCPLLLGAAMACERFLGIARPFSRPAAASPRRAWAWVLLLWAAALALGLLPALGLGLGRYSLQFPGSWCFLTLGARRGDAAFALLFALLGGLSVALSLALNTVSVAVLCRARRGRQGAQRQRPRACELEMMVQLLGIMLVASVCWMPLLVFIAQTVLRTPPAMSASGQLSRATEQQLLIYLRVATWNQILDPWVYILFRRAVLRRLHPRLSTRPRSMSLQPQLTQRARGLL
Description: Blood was collected from the abdominal aorta of guinea-pigs (about 400 g wt.) into 1/10 volume of 3.8% sodium citrate, and then platelet-rich plasma (PRP: 6×10^5 cells/μl) was obtained by centrifugation. A cuvette was filled with PRP 190 μl and set in an aggregometer (Hema Tracer I; Niko Bioscience). Incubation was carried out for 2 min. at 37° C. after the addition of 1 μl of dimethyl sulfoxide solution of test compounds. To the PRP, 10 μl of U-46619 (Cayman), a thromboxane A2 /prostaglandin H2 receptor agonist and potent platelet aggregation inducer, was added at the final concentration of 2 μg/ml, and platelet aggregation was measured by an aggregometer.

[2] = biological target: T2, thromboxane A2 synthetase (Homo sapiens, UniProt P24557); assay: Inhibitory effect on thromboxane A2 synthetase (human platelet membrane fraction, thromboxane B2 RIA); assay type: biochemical; details: 3 min at 25° C., read-out: IC50 (50% inhibition of the enzyme activity)
T2 construct: human platelet membrane fraction (RAN) as a source of thromboxane A2 synthetase; purchased RAN; host or cells: human platelet membrane fraction
T2 sequence (P24557 1-533): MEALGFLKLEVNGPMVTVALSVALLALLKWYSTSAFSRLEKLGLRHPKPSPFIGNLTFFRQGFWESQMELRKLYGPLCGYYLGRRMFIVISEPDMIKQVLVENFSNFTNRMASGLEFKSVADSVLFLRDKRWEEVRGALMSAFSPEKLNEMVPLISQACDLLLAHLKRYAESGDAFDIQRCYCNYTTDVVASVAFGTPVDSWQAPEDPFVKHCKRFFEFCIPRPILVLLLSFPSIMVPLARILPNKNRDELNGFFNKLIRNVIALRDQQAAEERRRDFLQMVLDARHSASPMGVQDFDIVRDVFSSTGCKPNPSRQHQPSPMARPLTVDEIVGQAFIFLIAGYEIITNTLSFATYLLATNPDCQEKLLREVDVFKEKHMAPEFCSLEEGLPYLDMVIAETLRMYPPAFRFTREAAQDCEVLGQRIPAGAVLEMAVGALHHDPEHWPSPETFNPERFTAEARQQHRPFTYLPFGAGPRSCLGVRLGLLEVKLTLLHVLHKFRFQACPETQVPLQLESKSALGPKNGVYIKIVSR
Description: 100 μg/ml (285 μl) of the commercially available human platelet membrane fraction (RAN) as a source of thromboxane A2 synthetase, dimethyl sulfoxide solution of test compounds (10 μl) and 100 μg/ml (5 μl) of prostaglandin H2 (Cayman) were mixed and reaction was carried out for 3 min at 25° C. Amount of thromboxane B2, a stable metabolite derived from thromboxane A2 produced, was measured by RIA method (TXB2 quantification kit; NEN).

[3] = biological target: T3, leukotriene D4 (Cavia porcellus, UniProt Q2NNR5); assay: Leukotriene D4 antagonistic effect in isolated trachea (Schild method); set-up: species or system male Hartley guinea-pigs; details: for Kb: isolated trachea, 30 min treatment, indomethacin 3×10^-6 M, Krebs 37° C.
T3 construct: tracheas were isolated from male Hartley guinea-pigs; from tissue; host or cells: isolated trachea of male Hartley guinea-pigs
T3 sequence (Q2NNR5 1-340): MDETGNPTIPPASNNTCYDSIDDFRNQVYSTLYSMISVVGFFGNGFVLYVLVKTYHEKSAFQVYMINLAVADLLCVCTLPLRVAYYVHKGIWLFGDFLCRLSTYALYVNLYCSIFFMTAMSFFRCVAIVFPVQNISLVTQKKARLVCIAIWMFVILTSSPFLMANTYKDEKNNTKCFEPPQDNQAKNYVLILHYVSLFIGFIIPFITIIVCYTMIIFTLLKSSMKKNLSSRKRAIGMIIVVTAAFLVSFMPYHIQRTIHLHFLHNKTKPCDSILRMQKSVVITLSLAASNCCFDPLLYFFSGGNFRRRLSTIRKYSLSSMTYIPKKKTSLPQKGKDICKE
Description: According to an ordinary method, tracheas were isolated from male Hartley guinea-pigs, and ring specimens of approximately […] length were prepared. These specimens were suspended isotonically in organ baths that contained Krebs solution at 37° C. under a resting tension of 0.5 g. After repeated contractions with acetylcholine (1×10^-6 M; Ovisot for injection, Daiichi Seiyaku), and the first concentration-response curves was obtained by cummulative applications of leukotriene D4 (ULTRA FINE) into the organ baths. After treatments with test compounds at adequate concentrations for 30 min, the second concentration-response curves were obtained in the same manner as first applications. pKB values were calculated using these two concentration-response curves according to the method of Schild [Pharmacological Review, Vol. 9, 242 (1957)]. Indomethacin (3×10^-6 M; Sigma) was added beforehand to the organ bath to eliminate possible affections by thromboxane A2 and prostaglandin produced by stimulus of leukotriene D4 [Japan J. Pharmacol., Vol. 60, 227 (1992)].

[4] = test system: broncho-constriction induced by leukotriene D4; assay: Inhibitory effect on broncho-constriction induced by leukotriene D4 (Konzett-Roessler method, oral); assay type: in vivo, male Hartley guinea-pig
Description: Airway resistance was evaluated according to the method of Konzett-Roessler[Naunyn-Schmiedberg's Arch. Exp. Path. Pharmak., Vol. 195, 71 (1940)]. After male Hartley guinea-pig fasted beforehand for 24 hr were anesthetized with urethane, overflowed air volume was measured under artificial ventilation as an index of broncho-constriction. 30 mg/kg (5 ml/kg) of test compounds suspended in 5% gum Arabic were administered orally to […]. Leukotriene D4 (1 μg/kg; ULTRA FINE) was administered through the cervical vein after 2 hr, and then values were measured at 2 min after the time when responses became maximum. Inhibitory rates compared to the control group were calculated based on the response rate normalized by the overflowed volume at complete closure as 100% broncho-constriction state. Indomethacin (2 mg/kg, i.v.) and propranolol (1 mg/kg, i.v.) were administered at 10 min and 5 min before the administration of leukotriene D4, respectively.

[5] = test system: broncho-constriction induced by U-46619; assay: Inhibitory effect on broncho-constriction induced by U-46619 (Konzett-Roessler method, oral); assay type: in vivo, Male hartley guinea-pigs; details: 0.3 mg/kg orally, 2 hrs before U-46619 4 μg/kg
Description: Airway resistance was evaluated according to the method of Konzett-Roessler[Naunyn-Schmiedberg's Arch. Exp. Path. Pharmak., Vol. 195, 71 (1940)]. Male hartley guinea-pigs (about 400 g wt.) were anesthetized with urethane (1.5 g/kg, i.p.) and ventilated by an artificial respirator (Model 683; Harvard). At that time, overflowed air volume above the pressure of about 12 cm H2 O was measured by using a sensor (Model 7020; Ugo basile) and the value was used as an index of broncho-constriction. 0.3 mg/kg (5 ml/kg) of test compounds suspended in 5% gum Arabic was administered orally to Guinea-pigs fasted beforehand for 24 hr. After 2 hrs, U-46619 (4 μg/kg; Cayman) was administered through the cervical vein, and then maximal response was measured. Inhibitory rates compared to the reference group were calculated based on the response rate normalized by the complete closure as 100%.

Compound	IC50 [1] [nM]	IC50 [2] [nM]	Kb [3] [nM]	inhibition in vivo at 30 mg/kg ([4]; Cavia porcellus, po, 30 mg/kg orally, leukotriene D4 1 μg/kg after 2 hr, indomethacin and propranolol pretreatment, read-out: Inhibition rate) [%]	inhibitory effect on broncho-constriction induced by leukotriene D4 (in words) ([4]; guinea pig, in vivo)	Inhibition rate [5] [%]	leukotriene D4 antagonistic effect (in words) [3]
CC(C)C(NS(=O)(=O)c1ccc(Cl)cc1)c1ccc(CCCC(=O)O)cc1 (stereo not shown) [Example 69, 4-[4-[1-(4-Chlorophenylsulfonylamino)-2-methylpropyl]phenyl]butyric Acid]	200	2000					
O=C(O)CCCc1ccc(C(NS(=O)(=O)c2ccc(Cl)cc2)C2CCCC2)cc1 (stereo not shown) [Example 73, 4-[4-[(4-Chlorophenylsulfonylamino)cyclopentylmethyl]phenyl]butyric Acid]	250	1600					
O=C(O)CCCc1ccc(C(NS(=O)(=O)c2ccc(Cl)cc2)C2CCCCC2)cc1 (stereo not shown) [Example 74, 4-[4-[(4-Chlorophenylsulfonylamino)cyclohexylmethyl]phenyl]butyric Acid]	320	3200	501				
O=C(O)Cc1ccc(CCNS(=O)(=O)c2ccc(Cl)cc2)cc1 [Reference compound, reference compound]		40000	> 100000	≤ 0	no inhibitory effect	18	inactive

Source: patent US5597848A, “Benzenesulfonamide derivatives and use thereof” (Hokuriku Seiyaku Co., Ltd., priority 1992, dated 1997)
